For test [1], the target named is T1, Cannabinoid receptor 1 (Homo sapiens, UniProt P21554). It counts as functional, cell-based.
Test [2] concerns the target T1, Cannabinoid receptor 1. It counts as functional, cell-based. This is another data set of the same source.
The target in test [3] is T2, Endothelin-1 receptor (Homo sapiens, UniProt P25101).
T2 sequence (P25101 whole entry): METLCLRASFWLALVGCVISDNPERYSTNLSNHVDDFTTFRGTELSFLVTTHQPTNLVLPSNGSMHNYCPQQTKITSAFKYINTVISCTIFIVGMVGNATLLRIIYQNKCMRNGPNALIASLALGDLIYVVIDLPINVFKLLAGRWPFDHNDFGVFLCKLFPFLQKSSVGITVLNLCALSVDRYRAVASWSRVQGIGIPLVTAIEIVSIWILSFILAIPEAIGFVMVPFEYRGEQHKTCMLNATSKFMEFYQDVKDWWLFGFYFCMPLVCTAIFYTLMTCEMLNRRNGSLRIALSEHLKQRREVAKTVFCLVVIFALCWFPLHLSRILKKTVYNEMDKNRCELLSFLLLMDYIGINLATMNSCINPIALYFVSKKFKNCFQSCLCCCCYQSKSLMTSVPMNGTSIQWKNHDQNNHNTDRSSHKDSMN

Test [4] concerns the target Growth hormone secretagogue receptor type 1 (Homo sapiens, UniProt Q92847).
Test [5] concerns the target 5-hydroxytryptamine receptor 2B (Homo sapiens, UniProt P41595). The class given is functional, cell-based.
Test [6] deals with T3, Neuropeptide Y receptor type 1 (Homo sapiens, UniProt P25929).
T3 sequence (P25929 whole entry): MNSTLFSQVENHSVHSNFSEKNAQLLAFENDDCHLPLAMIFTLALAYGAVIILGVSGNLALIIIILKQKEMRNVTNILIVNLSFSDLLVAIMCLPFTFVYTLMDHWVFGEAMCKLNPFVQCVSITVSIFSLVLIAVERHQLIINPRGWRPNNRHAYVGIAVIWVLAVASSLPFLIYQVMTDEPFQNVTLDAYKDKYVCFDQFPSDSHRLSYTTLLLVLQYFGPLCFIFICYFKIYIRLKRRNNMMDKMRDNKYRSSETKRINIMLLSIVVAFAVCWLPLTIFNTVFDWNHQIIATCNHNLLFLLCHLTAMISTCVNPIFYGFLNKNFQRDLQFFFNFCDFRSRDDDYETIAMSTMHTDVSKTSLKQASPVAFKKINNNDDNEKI
As to conditions: read-out: AC50.

The target of test [7] is T4, Alpha-1A adrenergic receptor (Homo sapiens, UniProt P35348).
T4 sequence (P35348 whole entry): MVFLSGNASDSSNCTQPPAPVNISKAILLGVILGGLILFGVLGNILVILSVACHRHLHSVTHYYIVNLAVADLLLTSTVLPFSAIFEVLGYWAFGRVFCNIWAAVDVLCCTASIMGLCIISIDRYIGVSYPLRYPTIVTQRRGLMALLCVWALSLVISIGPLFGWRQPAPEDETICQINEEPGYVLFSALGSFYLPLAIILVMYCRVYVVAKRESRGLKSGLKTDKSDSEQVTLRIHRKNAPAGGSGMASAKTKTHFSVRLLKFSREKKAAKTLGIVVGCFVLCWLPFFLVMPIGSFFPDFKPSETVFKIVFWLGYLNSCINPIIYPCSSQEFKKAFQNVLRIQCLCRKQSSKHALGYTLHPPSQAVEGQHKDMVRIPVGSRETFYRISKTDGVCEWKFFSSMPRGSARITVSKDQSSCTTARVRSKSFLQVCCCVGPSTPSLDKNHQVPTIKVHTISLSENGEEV

In test [8] the target is T1, Cannabinoid receptor 1.
The target of test [9] is T5, 5-hydroxytryptamine receptor 1A (Homo sapiens, UniProt P08908).
T5 sequence (P08908 whole entry): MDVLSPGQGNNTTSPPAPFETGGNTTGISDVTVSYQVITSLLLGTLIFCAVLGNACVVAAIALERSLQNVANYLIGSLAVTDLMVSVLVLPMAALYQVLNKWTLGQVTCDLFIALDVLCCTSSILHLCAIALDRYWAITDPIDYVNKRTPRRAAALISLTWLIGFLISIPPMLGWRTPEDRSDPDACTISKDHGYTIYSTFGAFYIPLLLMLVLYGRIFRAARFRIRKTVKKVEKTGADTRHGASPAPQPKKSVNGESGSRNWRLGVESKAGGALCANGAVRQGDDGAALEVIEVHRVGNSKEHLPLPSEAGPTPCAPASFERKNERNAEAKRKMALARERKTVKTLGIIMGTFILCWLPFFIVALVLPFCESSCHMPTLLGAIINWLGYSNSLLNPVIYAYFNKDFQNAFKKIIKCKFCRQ
It counts as functional, cell-based.

Test [10] deals with Melanocortin receptor 4 (Homo sapiens, UniProt P32245).
Chain of Melanocortin receptor 4 (P32245 whole entry): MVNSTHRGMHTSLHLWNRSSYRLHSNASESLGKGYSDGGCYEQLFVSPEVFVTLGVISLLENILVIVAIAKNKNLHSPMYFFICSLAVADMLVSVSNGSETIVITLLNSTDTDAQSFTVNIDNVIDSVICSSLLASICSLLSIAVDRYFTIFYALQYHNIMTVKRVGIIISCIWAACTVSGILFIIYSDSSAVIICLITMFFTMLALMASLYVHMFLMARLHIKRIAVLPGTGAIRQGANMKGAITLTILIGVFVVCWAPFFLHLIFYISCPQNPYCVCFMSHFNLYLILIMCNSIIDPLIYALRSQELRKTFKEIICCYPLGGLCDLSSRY
For test [11], the target named is Mu-type opioid receptor (Homo sapiens, UniProt P35372).
Chain of Mu-type opioid receptor (P35372 whole entry): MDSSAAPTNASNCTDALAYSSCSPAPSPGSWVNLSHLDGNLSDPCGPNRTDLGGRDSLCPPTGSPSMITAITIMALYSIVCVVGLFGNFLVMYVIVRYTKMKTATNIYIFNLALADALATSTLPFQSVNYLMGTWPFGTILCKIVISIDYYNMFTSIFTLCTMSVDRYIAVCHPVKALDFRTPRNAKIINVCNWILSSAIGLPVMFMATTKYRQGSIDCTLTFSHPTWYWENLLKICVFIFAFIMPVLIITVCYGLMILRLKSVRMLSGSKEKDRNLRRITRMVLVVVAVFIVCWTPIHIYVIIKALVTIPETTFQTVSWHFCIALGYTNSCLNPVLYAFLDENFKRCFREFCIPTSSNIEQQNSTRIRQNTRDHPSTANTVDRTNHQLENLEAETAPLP
Test [12] addresses Beta-2 adrenergic receptor (Homo sapiens, UniProt P07550). It counts as functional, cell-based.

This passage reports AC50 results from ChEMBL document CHEMBL5291721, “A preclinical secondary pharmacology resource illuminates target-adverse drug reaction associations of marketed drugs” (Nat Commun, 2023).

Each structure is given as a SMILES string. Bounds are passed on as bounds.
Note: assay procedure not described here.

Chain of 5-hydroxytryptamine receptor 2B (P41595 whole entry): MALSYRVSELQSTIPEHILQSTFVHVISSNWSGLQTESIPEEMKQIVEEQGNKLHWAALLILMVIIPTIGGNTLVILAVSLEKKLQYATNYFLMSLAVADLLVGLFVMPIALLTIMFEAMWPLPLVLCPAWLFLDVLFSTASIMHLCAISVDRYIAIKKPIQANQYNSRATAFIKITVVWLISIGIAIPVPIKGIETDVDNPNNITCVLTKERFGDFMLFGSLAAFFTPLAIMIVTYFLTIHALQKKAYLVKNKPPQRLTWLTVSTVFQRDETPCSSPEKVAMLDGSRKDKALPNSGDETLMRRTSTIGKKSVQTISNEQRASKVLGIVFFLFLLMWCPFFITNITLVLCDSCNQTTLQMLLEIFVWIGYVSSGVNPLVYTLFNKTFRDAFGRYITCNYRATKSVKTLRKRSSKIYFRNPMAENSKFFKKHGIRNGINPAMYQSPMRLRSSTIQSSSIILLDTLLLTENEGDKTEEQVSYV
Chain of Beta-2 adrenergic receptor (P07550 whole entry): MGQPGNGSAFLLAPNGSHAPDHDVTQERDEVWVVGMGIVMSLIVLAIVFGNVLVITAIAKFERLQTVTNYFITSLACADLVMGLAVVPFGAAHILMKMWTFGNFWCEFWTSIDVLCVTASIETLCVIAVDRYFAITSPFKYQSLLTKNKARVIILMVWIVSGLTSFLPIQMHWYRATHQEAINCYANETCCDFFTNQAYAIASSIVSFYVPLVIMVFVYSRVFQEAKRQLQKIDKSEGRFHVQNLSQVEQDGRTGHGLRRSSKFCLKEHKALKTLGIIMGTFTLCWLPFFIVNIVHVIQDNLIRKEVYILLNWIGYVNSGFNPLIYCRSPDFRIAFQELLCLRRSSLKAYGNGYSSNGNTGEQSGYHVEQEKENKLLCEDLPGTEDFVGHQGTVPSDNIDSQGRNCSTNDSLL
Chain of Growth hormone secretagogue receptor type 1 (Q92847 whole entry): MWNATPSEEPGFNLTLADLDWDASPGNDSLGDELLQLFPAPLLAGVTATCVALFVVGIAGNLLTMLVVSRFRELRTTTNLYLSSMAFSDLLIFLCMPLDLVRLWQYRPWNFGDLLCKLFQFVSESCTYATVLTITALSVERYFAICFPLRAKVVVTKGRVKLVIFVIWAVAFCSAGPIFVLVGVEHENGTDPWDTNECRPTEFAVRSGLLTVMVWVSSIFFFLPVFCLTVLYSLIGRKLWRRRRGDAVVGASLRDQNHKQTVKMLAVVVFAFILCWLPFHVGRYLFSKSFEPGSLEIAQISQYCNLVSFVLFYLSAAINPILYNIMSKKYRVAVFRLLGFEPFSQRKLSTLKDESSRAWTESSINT
T1 sequence (P21554 whole entry): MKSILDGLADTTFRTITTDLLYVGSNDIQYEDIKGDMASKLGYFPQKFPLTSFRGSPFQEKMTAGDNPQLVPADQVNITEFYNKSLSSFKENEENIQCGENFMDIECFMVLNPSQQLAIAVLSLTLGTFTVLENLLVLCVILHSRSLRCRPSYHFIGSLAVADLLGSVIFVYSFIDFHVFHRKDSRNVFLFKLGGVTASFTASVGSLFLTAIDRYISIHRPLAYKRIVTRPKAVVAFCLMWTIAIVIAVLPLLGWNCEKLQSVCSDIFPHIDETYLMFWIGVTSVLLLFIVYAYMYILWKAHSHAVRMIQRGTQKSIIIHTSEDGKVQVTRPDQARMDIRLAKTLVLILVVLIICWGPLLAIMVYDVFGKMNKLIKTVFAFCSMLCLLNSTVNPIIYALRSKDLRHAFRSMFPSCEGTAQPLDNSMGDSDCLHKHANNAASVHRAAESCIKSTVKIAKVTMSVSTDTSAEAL

One may read the AC50 as the midpoint of the concentration-response curve, whichever way the signal moves. Take `NC1CCN(c2nc3c(cc2F)c(=O)c(C(=O)O)cn3-c2ccc(F)cc2F)C1` (centres undefined) [TOSUFLOXACIN]: the AC50 in [1], in [2], in test [3], in test [4], in [5] and in test [6] was over 30 µM in each case.
For `O=C1CN=C(c2ccccc2)c2cc([N+](=O)[O-])ccc2N1` [NITRAZEPAM], the AC50 in [7] is over 30 µM; in test [8], over 10 µM; in test [4] it was over 10 µM; in [9] it was over 10 µM; in [5] it was over 10 µM; in test [10], over 10 µM. The values for the AC50 in test [6] and in test [11] were over 10 µM and over 30 µM, respectively.
As to `OCc1cc(C(O)CNCCCCCCOCCCCc2ccccc2)ccc1O` (centres undefined) [SALMETEROL], the concentration at half-maximal activity (AC50) in test [1] was over 30 µM; in test [2] it was over 30 µM; in test [8], over 10 µM; in [4] it was over 30 µM; in test [5], over 10 µM; in test [10], over 30 µM. The half-maximal activity concentration (AC50) in test [6] and in test [11] was over 30 µM in each case.
`CCN(CC)CCNC(=O)c1cc(S(C)(=O)=O)ccc1OC` [TIAPRIDE]: the half-maximal activity concentration (AC50) in test [1], in [2], in test [3], in test [4], in test [9] and in [5] was over 30 µM throughout. For the same compound, the AC50 in test [6] was over 30 µM.
Turning to `Cn1cnc2c(F)c(Nc3ccc(Br)cc3Cl)c(C(=O)NOCCO)cc21` [SELUMETINIB], the results for the AC50 in test [7] and in [11] were over 10 µM and over 30 µM, respectively.
For `CC(=O)[C@]1(O)Cc2c(O)c3c(c(O)c2[C@@H](O[C@H]2C[C@H](N)[C@H](O)[C@H](C)O2)C1)C(=O)c1ccccc1C3=O` [IDARUBICIN], the AC50 in test [12] is over 30 µM; in test [3] it was over 30 µM; in test [4], 7.7 µM; in [6] it was over 10 µM.
On to `C/C(=C\C(=O)OCCCCCCCCC(=O)O)C[C@@H]1OC[C@H](C[C@@H]2O[C@H]2[C@@H](C)[C@H](C)O)[C@@H](O)[C@H]1O` [MUPIROCIN], for which the AC50 in test [7], in test [8], in test [4], in [9], in [5] and in test [10] was over 10 µM in each case. The results for the half-maximal activity concentration (AC50) in test [6] and in test [11] were over 10 µM and over 30 µM, respectively.
As to `CCN1CCCC1CNC(=O)c1cc(S(=O)(=O)CC)c(N)cc1OC` (centres undefined) [AMISULPRIDE], the half-maximal activity concentration (AC50) in [7], in test [12], in test [1], in test [2], in [3] and in test [4] was over 30 µM throughout. The AC50 in test [9] and in test [6] was over 30 µM throughout.
For `CC(=O)OCC(=O)[C@@]1(O)[C@H](C)C[C@H]2[C@@H]3CCC4=CC(=O)C=C[C@]4(C)[C@@]3(F)[C@@H](O)C[C@@]21C` [DEXAMETHASONE ACETATE], the AC50 was over 10 µM in test [7]; over 30 µM in [1]; 20 µM in [2]; over 30 µM in test [3]; over 30 µM in [4]; over 10 µM in [9]. The concentration at half-maximal activity (AC50) in test [5] was over 10 µM; in test [10] it was over 30 µM; in test [6], over 30 µM; in [11], over 30 µM.
As to `Cn1c(=O)cc(N2CCC[C@@H](N)C2)n(Cc2ccccc2C#N)c1=O` [ALOGLIPTIN], the half-maximal activity concentration (AC50) in [8] was over 10 µM; in [3] it was over 30 µM; in test [4], over 30 µM; in [10] it was over 30 µM; in [6] it was over 30 µM; in test [11], 8.8 µM.
Consider `NC(=O)CN1CCCC1=O`, for which the half-maximal activity concentration (AC50) in [12], in test [1], in test [2], in test [3], in test [4] and in test [5] was over 30 µM throughout. Moreover, the AC50 in [6] was over 30 µM.
